# Values of other authors as cited in patent US11612885B2, “Methods, compositions and kits useful for pH gradient cation exchange chromatography” (WATERS TECHNOLOGIES CORPORATION, priority 2018, dated 2023).
# Details: buffer salts used in the Examples
SMILES,pKa1,pKa2
"O=C(O)CCC(=O)O [Succinic Acid, 1,4-butandioic acid]",4.1,5.5
"CC(C)(N)CO [AMP, 2-amino-2-methyl-1-propanol]",9.7,
"OCC(CO)(CO)NCCCNC(CO)(CO)CO [BIS-TRIS Propane, 1,3-bis(tris(hydroxymethyl)methylamino)propane]",6.8,9.1
"c1c[nH]cn1 [Imidazole, 1,3-diazacyclopenta-2,4-diene]",7.0,
"CC(N)(CO)CO [AMPD, 2-amino-2-methyl-1,3-propanediol]",8.8,

# Next, values leading:
pKa1,pKa2,SMILES
10.4,,"O=S(=O)(O)CCCNC1CCCCC1 [CAPS, 3-(Cyclohexylamino)-1-propanesulfonic acid]"
6.9,,"NC(=O)CNCCS(=O)(=O)O [ACES, 2-(carbamoylmethylamino)ethanesulfonic acid]"
3.1,8.1,"NCC(=O)NCC(=O)O [Gly-Gly, 2-[(2-Aminoacetyl)amino] acetic acid]"
2.4,8.1,"NCC(=O)O [Gly, Aminoethanoic acid]"

# Details: background statement; exposure
row,SMILES,known toxicity
1,"C1CNCCN1 [Piperazine, 1,4-Diazinane]",acute respiratory and skin irritation as well as organ damage with prolonged exposure
